9 compounds from PubChem BioAssay (NCI) can be followed below.

Test systems include UACC-62 melanoma; 786-0 renal; NCI-H23 lung; MDA-MB-231 breast; SNB-19 CNS; HOP-62 NSCLC; NCI-H226 lung; SK-MEL-5 melanoma; EKVX NSCLC; IGROV1 ovarian; OVCAR-8 ovarian; KM12 colon; RPMI-8226 leukemia; NCI-H460 lung; SK-OV-3 ovarian; HOP-92 NSCLC.
Holding throughout (assay): growth of human tumour cells (NCI), 48 h

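Grown in 96-well plates, cells were treated for 48 hours with each compound at five concentrations. Insufficient inhibition: endpoint recorded as highest concentration tested. TGI: concentration producing complete growth inhibition.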

Take `COC(=O)CN(CC(=O)NCCNC(=O)OC(C)(C)C)C1CCCCC1N(CC(=O)OC)CC(=O)OC` (centres undefined): the TGI in the assay with UACC-62 melanoma, in the assay on 786-0 renal, in the assay on NCI-H23 lung, in the assay with MDA-MB-231 breast, with SNB-19 CNS and in the assay on HOP-62 NSCLC was more than 100 µM throughout. The TGI in the assay on NCI-H226 lung, in the assay with SK-MEL-5 melanoma, with EKVX NSCLC, in the assay on IGROV1 ovarian, with OVCAR-8 ovarian and in the assay on KM12 colon was more than 100 µM each time. Moreover, the TGI in the assay with RPMI-8226 leukemia, in the assay with NCI-H460 lung and in the assay with SK-OV-3 ovarian was more than 100 µM in each case.
Take `CC(=O)C1C(=O)C(=O)N(c2ccc([N+](=O)[O-])cc2[N+](=O)[O-])C1=O` (centres undefined): the TGI with UACC-62 melanoma, in the assay with 786-0 renal, with NCI-H23 lung, with MDA-MB-231 breast, in the assay with SNB-19 CNS and in the assay with HOP-62 NSCLC was more than 100 µM each time. For the same compound, the TGI with NCI-H226 lung, with HOP-92 NSCLC, in the assay with SK-MEL-5 melanoma, in the assay on EKVX NSCLC, in the assay with IGROV1 ovarian and in the assay with OVCAR-8 ovarian was more than 100 µM each time. Besides, the TGI in the assay on KM12 colon, with NCI-H460 lung and in the assay with SK-OV-3 ovarian was more than 100 µM each time.
Regarding `COCN1C(=O)[C@@H]2C[C@@H](O)CN2C(=O)c2ccccc21`, the TGI with UACC-62 melanoma, in the assay on 786-0 renal, with NCI-H23 lung, with MDA-MB-231 breast, in the assay on SNB-19 CNS and with HOP-62 NSCLC was more than 100 µM in each case. Further, the TGI with HOP-92 NSCLC, in the assay with SK-MEL-5 melanoma, in the assay with EKVX NSCLC, in the assay with IGROV1 ovarian, in the assay with OVCAR-8 ovarian and in the assay with KM12 colon was more than 100 µM each time. In addition, the TGI in the assay on RPMI-8226 leukemia, in the assay with NCI-H460 lung and in the assay on SK-OV-3 ovarian was more than 100 µM throughout.
Turning to `COc1c(Sc2c(SCSc3cnc4ccccc4c3Sc3cnc4ccccc4c3OC)cnc3ccccc23)cnc2ccccc12`, the TGI in the assay on UACC-62 melanoma is more than 100 µM; in the assay on 786-0 renal it was more than 100 µM; in the assay on NCI-H23 lung it was more than 100 µM; with MDA-MB-231 breast, more than 100 µM; with SNB-19 CNS, 77.3 µM; with HOP-62 NSCLC, more than 100 µM. The TGI with HOP-92 NSCLC was 84 µM; with SK-MEL-5 melanoma it was more than 100 µM; with EKVX NSCLC, more than 100 µM; in the assay with IGROV1 ovarian, more than 100 µM; in the assay on OVCAR-8 ovarian it was more than 100 µM; in the assay with KM12 colon, more than 100 µM. Further, the TGI in the assay on RPMI-8226 leukemia and in the assay with NCI-H460 lung was more than 100 µM throughout.
Turning to `O=C(NCCCCCCCCNC(=O)Nc1cccc2ccccc12)Nc1cccc2ccccc12`, the TGI in the assay on UACC-62 melanoma was more than 100 µM; in the assay on 786-0 renal it was 24.9 µM; with NCI-H23 lung it was more than 100 µM; with MDA-MB-231 breast it was 23.3 µM; in the assay with SNB-19 CNS, more than 100 µM; in the assay with HOP-62 NSCLC, 50.6 µM. The TGI with HOP-92 NSCLC was 36 µM; in the assay with SK-MEL-5 melanoma, more than 100 µM; with EKVX NSCLC it was more than 100 µM; in the assay on IGROV1 ovarian, more than 100 µM; with OVCAR-8 ovarian, more than 100 µM; in the assay on KM12 colon it was more than 100 µM. Also, the TGI was more than 100 µM in the assay with RPMI-8226 leukemia and 13.4 µM in the assay with NCI-H460 lung.
For `O=S(Cc1ccccc1)c1ccccc1Cn1cccc1` (centres undefined), the TGI with UACC-62 melanoma, in the assay with 786-0 renal, in the assay on NCI-H23 lung, with MDA-MB-231 breast, with SNB-19 CNS and in the assay on HOP-62 NSCLC was more than 100 µM in each case. The TGI in the assay with HOP-92 NSCLC, with SK-MEL-5 melanoma, in the assay on EKVX NSCLC, in the assay on IGROV1 ovarian, in the assay with KM12 colon and in the assay on RPMI-8226 leukemia was more than 100 µM in each case. Moreover, the TGI in the assay on NCI-H460 lung and in the assay on SK-OV-3 ovarian was more than 100 µM in each case.
For the compound `NCCCN(CCCCN(CCCN)Cc1ccccc1)Cc1ccccc1`, the TGI in the assay on UACC-62 melanoma is more than 100 µM; in the assay with 786-0 renal, 77.5 µM; in the assay on NCI-H23 lung, more than 100 µM; with MDA-MB-231 breast, more than 100 µM; with SNB-19 CNS, 22.5 µM; with NCI-H226 lung it was more than 100 µM. For the same compound, the TGI is more than 100 µM in the assay with SK-MEL-5 melanoma; 96.5 µM with EKVX NSCLC; 37.1 µM in the assay with IGROV1 ovarian; more than 100 µM in the assay on OVCAR-8 ovarian; more than 100 µM in the assay on KM12 colon; more than 100 µM with RPMI-8226 leukemia. Also, the TGI in the assay with NCI-H460 lung was 32.2 µM; in the assay with SK-OV-3 ovarian, more than 100 µM.
As to `O=C(C[C@@H]1CCCN2CCCC[C@H]12)N1c2ccccc2Sc2ccc(Cl)cc21`, the TGI was 23.1 µM in the assay on 786-0 renal; 29.1 µM in the assay with NCI-H23 lung; 28.4 µM in the assay with MDA-MB-231 breast; 31.1 µM in the assay with SNB-19 CNS; 26 µM in the assay with HOP-62 NSCLC; 46 µM in the assay with NCI-H226 lung. The TGI stood at 23.9 µM in the assay on SK-MEL-5 melanoma; 33.8 µM with EKVX NSCLC; 25.6 µM in the assay on IGROV1 ovarian; 37.2 µM with OVCAR-8 ovarian; 27.6 µM in the assay with KM12 colon; 54.8 µM in the assay with RPMI-8226 leukemia. The TGI in the assay with NCI-H460 lung is 28.3 µM.
Consider `Nc1nc(Cl)c(N)c(NCC2(CO)CCC(OCc3ccccc3)C2)n1` (centres undefined), for which the TGI in the assay on UACC-62 melanoma, in the assay with 786-0 renal, in the assay with NCI-H23 lung, with MDA-MB-231 breast, in the assay with SNB-19 CNS and with HOP-62 NSCLC was more than 100 µM throughout. For the same compound, the TGI with NCI-H226 lung, in the assay on HOP-92 NSCLC, in the assay on SK-MEL-5 melanoma, with EKVX NSCLC, in the assay with IGROV1 ovarian and in the assay with OVCAR-8 ovarian was more than 100 µM throughout. For the same compound, the TGI in the assay on KM12 colon, in the assay with NCI-H460 lung and in the assay with SK-OV-3 ovarian was more than 100 µM each time.
